Test system: serotonin in terminal areas
Test: microdialysis experiments (level of serotonin in terminal areas)
Type: in vivo
Details: administration of agomelatine alone
Text: Administration of agomelatine alone causes no increase in serotonin levels as measured in microdialysis experiments.

Question: `COc1ccc2cccc(CCNC(C)=O)c2c1` [agomelatine] was tested. Which “serotonin levels as measured in microdialysis experiments” value did it give?
Answer: no increase
